In general, viability refers to the share of living cells, or the viability signal relative to a control. A high value points to less harm to the cells. By Cmax is commonly meant the highest concentration seen after dosing. What is called MRT is a mean duration of stay, worked out from the concentration-time curve. For orientation: IC50 means the midpoint of a concentration-inhibition curve.

SMILES strings stand for the structures. Like-named read-outs stand apart in the source and are kept apart here.

One data set concerns R10-Negative cells. As to the kind of experiment: CFSE cell division and viability. Type of data set: cell-based. Conditions: 144 h. The procedure: Using the vital stain, CFSE, it is possible to determine the concentrations of different inhibitors required to arrest cell division and also to quantitate the number of quiescent cells. […] However with exposure to ST1571 at the same concentration many cells continue dividing and 80% are still viable after 6 days; even at 100 nM ST1571, some cells are able to continue dividing and the viability is still 24% at 6 days.

Data set [1] in a line: Serial plasma levels in mice (bioavailability). Type of data set: in vivo. The following applies: mouse, oral, read-out: bioavailability after oral administration relative to intravenous or intraperitoneal injection. The text has this: Toxicological and pharmacological studies in mice and dogs include determining the maximum tolerated doses, measuring plasma and tissue levels and bioavailability after oral and parenteral administration, and developing optimal formulations for both oral and parenteral use. […] One way to administer the drug is by continuous infusion, and we are currently exploring the use of small osmotic pumps that can be inserted into the peritoneal cavities of mice that will deliver a constant concentration continuously. All animal studies are performed under the standard guidelines. Initial dose escalation studies are performed via oral delivery on control mice in order to determine the maximum tolerated dose (MTD). Studies proceed at or below half-MTD. The inherent kinetics for disease engraftment of each model system and the appropriate windows for duration of drug administration are then determined. In the human mesothelioma xenograft model, tumor formation is evaluated, allowing for the establishment of 1-2 mm^3 tumors before drug administration. Survival data are presented using the Kaplan-Meyer method. We will compare the administration of the inhibitors by i.v. or i.p. bolus injection with continuous i.p. infusion using an osmotic pump.

Data set [2] is described as follows: Pharmacokinetics in B6D2F1 mice. Format: in vivo. Conditions: for Cmax / MRT / bioavailability: B6D2F1, mouse, plasma, 1 mg; for Cmax / MRT / AUG (uM × Min) IV / AUG (uM × Min) PO: one milligram; for bioavailability: po vs iv. The procedure:
Solvents. […] SKI-DV281 was dissolved/suspended in a solution of 20% Cremophor +20% ethanol in saline.
Animal Experiments. For each compound, nineteen B6D2F1 mice were used. One mouse was used as control and the rest was divided into two groups with 9 mice per group. One milligram ([…] at 17 mg/ml) of compound was administered to the mice through oral gavage in one group and intravenously in the other group. At each time point (total of 9 time points) after the drug administration, one mouse from each group was sacrificed and approximately 400 μl of blood was collected into heparinized tubes through cardiac puncture. The plasma samples were analyzed as described below.
Analytical. The analysis of drug level in plasma is performed with an automated LC-MS system, which consists of a Prospekt-2 automated sample processor, interfaced with an Agilent 1100 LC-MS. The Prospekt-2 consists of two parts, high pressure eluter (HPE) and automated cartridge exchanger (ACE). The Agilent unit consists of a binary pump, an autosampler, the instrument will perform extraction and analysis automatically. The ACE picks up a new C, 18 solid phase […] (SPE) cartridge and places it into the clamp. The HPE activates the cartridge by passing acetonitrile and water through the cartridge. The autosampler picks up a predetermined amount of the plasma and the HPE flushes the plasma onto the SPE cartridge, washes it with water, then the sample is analyzed. When the cycle is completed, the ACE will fetch a new cartridge and cycle is repeated.
Data analysis and result. The pharmacokinetic curve for each compound was plotted intravenous versus oral (iv vs. po) (see FIGS. 27-29). Data analysis was performed with WinNonlin v.4 (Pharsight) using non-compartmental model.

For data set [3], the target named is T1, Ba/F3 cells transformed with Bcr-Abl wild-type (Homo sapiens, UniProt P00519).
T1 construct: other: von Bubnoff et al. 2002; other: 48 hours of culture; fused on or other part: P11274 (Breakpoint cluster region protein)
The experiment in a line: MTS proliferation, Ba/F3 Bcr-Abl wild-type. Type of data set: cell-based. The following applies: for GI50: read-out: IC50, growth inhibition. On the procedure:
(§1) Presence of single point mutations was verified by sequencing. […] Parental cells were cultured in presence of 2 ng/mL interleukin-3 (IL-3, R&D, Wiesbaden, Germany). IL-3 independent Ba/F3 cells expressing wild-type and mutant BCR-ABL were generated by electroporation and transformed upon withdrawal of IL-3. Expression of Bcr-Abl was confirmed by western blot and flow-cytometric analysis.
(§2) Proliferation was measured using a MTS tetrazolium-based method by absorption of formazam at 490 nm (CellTiter 96, Promega, Madison, Wis., USA). Measures were taken as triplicates after 24 and 48 hours of culture without and in the presence of inhibitor at the indicated concentrations.

The target of another data set is T2, Bcr-Abl/T3151 (Homo sapiens, UniProt P00519, T315I).
T2 construct: expressed in transfected cells; host or cells: Ba/F3 cells; the other entry of the earlier key: BCR (P11274, Breakpoint cluster region protein)
As to the kind of experiment: Bcr-Abl tyrosine phosphorylation in Ba/F3 cells, T3151. Format: cell-based.

The target in the next data set is Bcr-Abl Y253H (Homo sapiens, UniProt P00519, Y253H). The procedure: (§3) Ba/F3 cells were cultured for 2,5 hours without and in presence of inhibitor at the indicated concentrations. Cell lysis, SDS-PAGE and immunoblotting were done as described previously.^42 Anti-Abl antibodies were obtained from Pharmingen (8E9) (BD Biosciences, Heidelberg, Germany) and Calbiochem-Novabiochem (Ab3) (Schwalbach, Germany). Antibodies to phosphotyrosine were purchased from Upstate Biotechnology (4G10) (Biozol, Eching, Germany) and Transduction (PY20) (BD Biosciences, Heidelberg, Germany). Bands were visualized using the ECL system (Amersham, Braunschweig, Germany).

In a further data set the target is Bcr-Abl E255V (Homo sapiens, UniProt P00519, E255V). On the procedure:
as §3

The next data set deals with Bcr-Abl H396P (Homo sapiens, UniProt P00519, H396P). The procedure:
as §3

In the next data set the target is Bcr-Abl E255K (Homo sapiens, UniProt P00519, E255K). On the procedure:
as §3

Data set [4] has as its target T3, Ba/F3 cells transformed with Bcr-Abl wild-type (Homo sapiens, UniProt P00519, cells depend on it, form not given).
T3 construct: fused on or other part: P11274 (Breakpoint cluster region protein)
As to the kind of experiment: MTS proliferation, Ba/F3 Bcr-Abl wild-type. Format: cell-based. The procedure: as §1, §2

Data set [5] concerns Ba/F3 cells expressing P loop mutant Y253H. As to the kind of experiment: MTS proliferation, Ba/F3 Bcr-Abl Y253H. Type of data set: cell-based. On the procedure:
as §1, §2

In another data set the test system is parental Ba/F3 cells. The experiment in a line: MTS proliferation, parental Ba/F3 cells. Format: cell-based. Conditions: read-out: IC50, unspecific growth inhibition. An excerpt:
[…]. Lancet, 359: 487-491, 2002; incorporated herein by reference). Briefly, RT-PCR fragments derived from clinical samples were cloned into pBlueskript SK+ p185^bcr-abl (Stratagene, Amsterdam, NL), and subcloned into pcDNA3.1/Zeo (+) (Invitrogen, Leek, NL) and Mig EGFP (Bai, R. Y., Ouyang, T., Miething, C., Morris, S. W., Peschel, C., and Duyster, J. Nucleophosmin-anaplastic lymphoma kinase associated with anaplastic large-cell lymphoma activates the phosphatidylinositol 3-kinase/Akt antiapoptotic signaling pathway. Blood, 96: 4319-4327, 2000; incorporated herein by reference). Presence of single point mutations was verified by sequencing. Ba/F3 cells were maintained in RPMI 1640 growth media (Gibco, Karlsruhe, Germany) containing 10% fetal calf serum (Gibco) and P/S (Gibco) (200 U penicillin per mL and 200 μg streptomycin per mL). Parental cells were cultured in presence of 2 ng/mL interleukin-3 (IL-3, R&D, Wiesbaden, Germany). IL-3 independent Ba/F3 cells expressing wild-type and mutant BCR-ABL were generated by electroporation and transformed upon withdrawal of IL-3. Expression of Bcr-Abl was confirmed by western blot and flow-cytometric analysis.
Proliferation was measured using a MTS tetrazolium-based method by absorption of formazam at 490 nm (CellTiter 96, Promega, Madison, Wis., USA). […]

Data set [6] has as its system Ba/F3 cells expressing P loop mutant E255V. As to the kind of experiment: MTS proliferation, Ba/F3 Bcr-Abl E255V. Type of data set: cell-based. The procedure: as §1, §2
The target of another data set is T4, Bcr-Abl wild-type (Homo sapiens, UniProt P00519).
T4 construct: expressed in transfected cells; host or cells: Ba/F3 cells (electroporation, IL-3 independent); the other entry of the earlier key: BCR (P11274, Breakpoint cluster region protein)
As to the kind of experiment: Bcr-Abl tyrosine phosphorylation in Ba/F3 cells, wild-type. Type of data set: cell-based.

Data set [7] has as its system Ba/F3 cells expressing P loop mutant E255K. As to the kind of experiment: MTS proliferation, Ba/F3 Bcr-Abl E255K. Type of data set: cell-based. On the procedure:
as §1, §2

Setting [8] is: intravenous, read-out: Cmax (uM) IV.
The mark [9] stands for this setting: intravenous, read-out: MRT (Min) IV (converted).
The mark [10] stands for this setting: oral gavage, read-out: Cmax (uM) PO.
[11] abbreviates: oral gavage, read-out: MRT (Min) PO (converted).

The compound `Cc1ccc(NC(=O)c2ccc(CN3CCN(C)CC3)cc2)cc1Nc1nccc(-c2cccnc2)n1` [STI-571] came in with a viability at […] in the data set with R10-Negative cells (25 nM, after 6 days) of 80%. Besides, in the data set on R10-Negative cells (100 nM, at 6 days), the viability at 0.1 µM was 24%.
As to `Cn1c(=O)c(-c2c(Cl)cccc2Cl)cc2cnc(Nc3cccc(CO)c3)nc21` [PD166326, 6-(2,6-Dichlorophenyl)-2-(3-hydroxymethylphenylamino)-8-methyl-8H-pyrido[2,3-d]pyrimidin-7-one], the bioavailability in data set [1] was approximately 8%; in data set [2] it was 6.6%. The figures for the Cmax in [2] (setting [8]) and in data set [2] (setting [10]) were 90 µM and 3.2 µM, respectively. Moreover, the mean residence time (MRT) in [2] (setting [9]) was 103 min; in [2] (setting [11]), 126 min. For the same compound, the “AUG (uM × Min) IV” value in [2] (intravenous) is 2395 µM·min. The “AUG (uM × Min) PO” value in data set [2] (oral gavage) was 158 µM·min.
Take `Cn1c(=O)c(-c2c(Cl)cccc2Cl)cc2cnc(Nc3ccc(NC(=O)CCCCCNC(=O)CCCC[C@@H]4SC[C@@H]5NC(=O)N[C@@H]54)cc3)nc21` [SKI DV 1-10 biotinyl, 2-{4-[6-(Biotinamido)hexanamido]phenylamino}-6-(2,6-dichlorophenyl)-8-methyl-8H-pyrido[2,3-d]pyrimidin-7-one]: in data set [3] (48 hours of culture), the “IC95, growth inhibition” value is on record as 515 nM and the GI50 worked out at 115 nM.
In the case of `Cc1cc(Nc2ncc3cc(-c4c(Cl)cccc4Cl)c(=O)n(C)c3n2)ccc1F` [PD180970], the “activity (autophosphorylation) of Bcr-Abl/T3151” value at Bcr-Abl/T3151 is “did not impair”. Moreover, the “concentration of complete disappearance of phosphotyrosine Bcr-Abl” value was 2 µM at Bcr-Abl Y253H; 2 µM at Bcr-Abl E255V; 250 nM on Bcr-Abl H396P; 1 µM at Bcr-Abl E255K; 250 nM at Bcr-Abl wild-type. In addition, the “fold higher concentrations than the most active compounds” value in data set [4] worked out at 5 fold. Moreover, the “cellular IC95” value is reported as 770 nM in data set [5] and 935 nM in data set [6]. In the data set on parental Ba/F3 cells, the concentration for half-maximal inhibition (IC50) worked out at 830 nM.
For the compound `Cn1c(=O)c(-c2c(Cl)cccc2Cl)cc2cnc(Nc3cccc(N)c3)nc21` [SKI DV 2-43, 2-(3-Aminophenylamino)-6-(2,6-dichlorophenyl)-8-methyl-8H-pyrido[2,3-d]pyrimidin-7-one], the “IC95, growth inhibition” value in data set [3] is reported as 40 nM. Besides, the GI50 in [3] (ba/f3 cells transformed with bcr-abl wild-type) amounted to 9 nM. The figures for the “cellular IC95” value in [5], in data set [7] and in data set [6] were 125 nM, 110 nM and 200 nM, respectively. Besides, the highest concentration (Cmax) in [2] (setting [8]) was found to be 224 µM; in [2] (setting [10]), 10 µM. Further, the mean residence time MRT is 174 min in data set [2] (setting [9]) and 294 min in data set [2] (setting [11]). Further, the bioavailability in [2] turned out to be 4%. Besides, in data set [2] (intravenous), the “AUG (uM × Min) IV” value amounted to 20319 µM·min. In addition, the “AUG (uM × Min) PO” value in data set [2] (oral gavage) stood at 826 µM·min.

Values taken from patent US20050009849A1, “Pyridopyrimidine kinase inhibitors” (priority 2003, published 2005).
